For assay [1], the system named is T47D cells. In words: Cellular Growth Inhibition Assay for T47D Cells (CellTiter-Glo). The assay is classed as cell-based, human. The following applies: 72 hours. The method, then:
Exemplary compounds were tested for ability to inhibit the proliferation of T47D cells. T47D cells are a commercially available human breast cancer cell line.
T47D cells were purchased from American Type Cell Culture (ATCC Cat #HTB-133) and then seeded on poly-D-lysine coated, black clear-bottom 384-well plates at 3000/well in 25 μL Dulbecco's Modified Eagle Medium (DMEM) supplemented with 10% w/w Fetal bovine serum (FBS), 0.2 units/mL recombinant human insulin (Gibco Cat #12585014), and 1% w/w Pen-Strep. Pen-Strep is a commercially available mixture of penicillin G and streptomycin, which is used in mammalian cell culture media to prevent bacterial contamination. Dulbecco's Modified Eagle Medium (DMEM) supplemented with 10% w/w fetal bovine serum (FBS), 0.2 units/mL recombinant human insulin, and 1% w/w Pen-Strep is herein referred to as Treatment Medium. Following seeding of cells in the plates, the plates were spun at 300×g for 30 seconds, then equilibrated to room temperature for 30 minutes, and then deposited in a humidified tissue culture incubator maintained at 37° C. with 5% CO2.
At 24 hours after seeding of the cells, dilutions of test compound were prepared in DMSO and dissolved in Treatment Medium, to achieve a final DMSO concentration of 0.5% w/w, thereby providing the Test Compound Solution. A 25 μL aliquot of the Test Compound Solution was added to cells in the well plates. An equal volume of a solution containing DMSO and Treatment Medium was used as a negative control. Following treatment of cells with Test Compound Solution or said equal volume of a solution containing DMSO and Treatment Medium, the plates were spun at 300×g for 30 seconds, and then left in an incubator for 72 hours.
At the end of the treatment duration, cell viability was quantified with CellTiter-Glo 2.0 reagent (Promega Cat #G9243). For this purpose, plates were equilibrated to room temperature for 30 minutes, and then 25 μL of CellTiter-Glo 2.0 reagent was added to cells in the plate wells. Plates were then agitated on a shaker for two minutes at 500 rpm and subsequently incubated at room temperature for 10 minutes. Following incubation, the plates were spun at 3000×g for 30 seconds, then sealed with an optical adhesive cover, and luminescence readings were measured with an EnVision Plate Reader (Perkin Elmer).
Data was normalized using zero luminescence for baseline. A four-parameter non-linear regression curve fit was applied to dose-response data in GraphPad Prism data analysis software to determine the half-maximal growth inhibitory concentration (GI50) for each test compound.
For orientation: In ATP-based viability assays light output follows the ATP content of the culture.

In assay [2] the test system is T-Rex 293 cell line SC3 cells having increased expression of androgen receptor protein due to exposure to doxycycline. In words: Cellular growth inhibition, T-Rex 293 SC3 cells with doxycycline (increased androgen receptor expression), CellTiter-Glo. It is filed as cell-based. The following applies: T-Rex 293 SC3 cells with 10 ng/mL doxycycline (increased androgen receptor expression), 72 hours, CellTiter-Glo 2.0. A digest of the protocol: (§1)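 Doxycycline (10 ng/mL) was either included or omitted to toggle wild-type androgen receptor expression in SC3 cells, a T-Rex 293 clone, grown in stripped-serum, phenol red-free medium. After 72 hours with compound, viable cells were quantified by CellTiter-Glo 2.0.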

In assay [3] the test system is VCaP cells. In words: Cellular growth inhibition assay for VCaP cells, CellTiter-Glo. The conditions noted are these: 72 hours. It is filed as cell-based, human. The gist of the method:
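GI50 values come from four-parameter curve fits of luminescence data normalized to a zero baseline. Compound, in medium with 0.5% DMSO, was added one day after plating and left for 72 h before CellTiter-Glo 2.0 addition.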

In assay [4] the test system is T-Rex 293 cell line SC3 cells lacking increased expression of androgen receptor protein. In words: Cellular growth inhibition, T-Rex 293 SC3 cells without doxycycline (no increased androgen receptor expression), CellTiter-Glo. The assay is classed as cell-based. The following applies: T-Rex 293 SC3 cells not exposed to doxycycline (no increased androgen receptor expression), 72 hours. The gist of the method: as §1

By GI50 is commonly meant the concentration that inhibits growth by half. Read a low GI50 as more potent growth inhibition. With `Cn1cc(-c2ccccc2Oc2ccc(N3CC(CC4CCN(c5cnc(C(=O)N[C@H]6C(C)(C)[C@H](Oc7ccc(C#N)c(Cl)c7)C6(C)C)cn5)CC4)C3)cc2)c2cc[nH]c2c1=O` [Compound I-361], the GI50 in assay [1] was under 500 nM. Same read-out and setting: under `Cn1cc(-c2ccccc2Oc2ccc(N3CC(C4CCN(c5ccc(C(=O)N[C@H]6C(C)(C)[C@H](Oc7ccc(C#N)c(Cl)c7)C6(C)C)nc5)CC4)C3)cc2)c2cc[nH]c2c1=O` [Compound I-386] stands under 500 nM.

Turning to `Cn1cc(-c2ccccc2Oc2ccc(CC3CCN(c4cnc(C(=O)N[C@H]5C(C)(C)[C@H](Oc6ccc(C#N)c(Cl)c6)C5(C)C)cn4)CC3)cc2)c2cc[nH]c2c1=O` [Compound I-371], in assay [1] (Homo sapiens), the GI50 is under 500 nM. `Cn1cc(-c2cc(C(C)(C)O)ccc2Oc2ccc(N3CC(C4CCN(c5ccc(C(=O)N[C@H]6C(C)(C)[C@H](Oc7ccc(C#N)c(Cl)c7)C6(C)C)nc5)CC4)C3)cc2)c2cc[nH]c2c1=O` [Compound I-388] had a GI50 in assay [1] of under 500 nM. Take `Cn1cc(-c2cc(C(C)(C)O)ccc2Oc2cccc(N3CC(CC4CCN(c5ncc(C(=O)N[C@H]6C(C)(C)[C@H](Oc7ccc(C#N)c(Cl)c7)C6(C)C)cn5)CC4)C3)c2)c2cc[nH]c2c1=O` [Compound I-376]: the GI50 in assay [1] is under 500 nM. In assay [1] (Homo sapiens), `Cn1cc(-c2cc(C(C)(C)O)ccc2Oc2ccc(N3CC(CC4CCN(c5cnc(C(=O)N[C@H]6C(C)(C)[C@H](Oc7ccc(C#N)c(Cl)c7)C6(C)C)cn5)CC4)C3)cc2Cl)c2cc[nH]c2c1=O` [Compound I-393] came in with a GI50 of under 500 nM. In assay [1], `CC(C)c1ccc(Oc2cccc(OCCC3CCN(c4ncc(C(=O)N[C@H]5C(C)(C)[C@H](Oc6ccc(C#N)c(Cl)c6)C5(C)C)cn4)CC3)c2)c(-c2cn(C)c(=O)c3[nH]ccc23)c1` [Compound I-141] registered a GI50 of 500 to 1500 nM. In assay [1] (Homo sapiens), `Cn1cc(-c2cc(C(C)(C)O)ccc2Oc2ccccc2N2CC(CC3CCN(c4ncc(C(=O)NC5C(C)(C)C(Oc6ccc(C#N)c(Cl)c6)C5(C)C)cn4)CC3)C2)c2cc[nH]c2c1=O` (centres unmarked) [Compound I-387, N-[3-(3-chloro-4-cyano-phenoxy)-2,2,4,4-tetramethyl-cyclobutyl]-2-[4-[[1-[2-[4-(1-hydroxy-1-methyl-ethyl)-2-(6-methyl-7-oxo-1H-pyrrolo[2,3-c]pyridin-4-yl)phenoxy]phenyl]azetidin-3-yl]methyl]-1-piperidyl]pyrimidine-5-carboxamide] returned a GI50 of over 3000 nM.

In assay [1], `COc1cc(Oc2ccc(C(C)(C)O)cc2-c2cn(C)c(=O)c3[nH]ccc23)ccc1N1CC(CC2CCN(c3cnc(C(=O)N[C@H]4C(C)(C)[C@H](Oc5ccc(C#N)c(Cl)c5)C4(C)C)cn3)CC2)C1` [Compound I-394] returned a GI50 of under 500 nM. Still for that read-out and setting: under `Cn1cc(-c2ccccc2Oc2ccc(N3CC(C4CCN(c5ncc(C(=O)N[C@H]6C(C)(C)[C@H](Oc7ccc(C#N)c(Cl)c7)C6(C)C)cn5)CC4)C3)cc2)c2cc[nH]c2c1=O` [Compound I-360] stands 500 to 1500 nM.

With `Cn1cc(-c2cc(C(C)(C)O)ccc2Oc2ccc(N3CC(C[C@@H]4[C@H]5CN(c6ncc(C(=O)N[C@H]7C(C)(C)[C@H](Oc8ccc(C#N)c(Cl)c8)C7(C)C)cn6)C[C@@H]45)C3)cc2)c2cc[nH]c2c1=O` [Compound I-372], in assay [1] (Homo sapiens), the GI50 was under 500 nM. On the same count and under the same terms, with `Cn1cc(-c2ccccc2Oc2ccc(OC3CC4(C3)CC3(CCN(c5ncc(C(=O)N[C@H]6C(C)(C)[C@H](Oc7ccc(C#N)c(Cl)c7)C6(C)C)cn5)CC3)C4)cc2)c2cc[nH]c2c1=O` [Compound I-358] the figure was over 3000 nM. `Cn1cc(-c2ccccc2Oc2ccc(N3CC(C4CCN(c5cnc(C(=O)N[C@H]6C(C)(C)[C@H](Oc7ccc(C#N)c(Cl)c7)C6(C)C)cn5)CC4)C3)cc2)c2cc[nH]c2c1=O` [Compound I-365]: in assay [1], the GI50 is under 500 nM. `Cn1cc(-c2cc(C(C)(C)O)ccc2Oc2ccccc2)c2cc(C(=O)NC3CC(CC4CCN(c5ccc(C(=O)NC6C(C)(C)C(Oc7ccc(C#N)c(Cl)c7)C6(C)C)nc5)CC4)C3)[nH]c2c1=O` (centres unmarked) [Compound I-377, N-[3-[[1-[6-[[3-(3-chloro-4-cyano-phenoxy)-2,2,4,4-tetramethyl-cyclobutyl]carbamoyl]-3-pyridyl]-4-piperidyl]methyl]cyclobutyl]-4-[5-(1-hydroxy-1-methyl-ethyl)-2-phenoxy-phenyl]-6-methyl-7-oxo-1H-pyrrolo[2,3-c]pyridine-2-carboxamide] displayed a GI50 in assay [1] (Homo sapiens) of over 3000 nM. In the case of `COc1cc(O[C@H]2C(C)(C)[C@H](NC(=O)c3cnc(N4CCC(CC5CN(c6ccc(Oc7ccc(C(C)(C)O)cc7-c7cn(C)c(=O)c8[nH]ccc78)cc6)C5)CC4)cn3)C2(C)C)ccc1C#N` [Compound I-384], the GI50 in assay [1] was under 500 nM. Still for that read-out and setting: with `Cn1cc(-c2cc(C(C)(C)O)ccc2Oc2ccc(N3CC(C4CCN(c5cnc(C(=O)N[C@H]6C(C)(C)[C@H](Oc7ccc(C#N)c(Cl)c7)C6(C)C)cn5)CC4)C3)cc2)c2cc[nH]c2c1=O` [Compound I-381] the figure was 500 to 1500 nM.

`Cn1cc(-c2cc(C(C)(C)O)ccc2Oc2ccc(N3CC(CC4CCN(c5cnc(C(=O)N[C@H]6C(C)(C)[C@H](Oc7ccc(C#N)c(F)c7)C6(C)C)cn5)CC4)C3)cc2)c2cc[nH]c2c1=O` [Compound I-383]: the GI50 in assay [1] (Homo sapiens) is under 500 nM.

`Cn1cc(-c2cc(C(C)(C)O)ccc2Oc2ccc(CC3CC4(CCN(c5ncc(C(=O)N[C@H]6C(C)(C)[C@H](Oc7ccc(C#N)c(Cl)c7)C6(C)C)cn5)CC4)C3)cc2)c2cc[nH]c2c1=O` [Compound I-324] came in with a GI50 in assay [1] (Homo sapiens) of under 500 nM. Regarding `Cn1cc(-c2cc(C(C)(C)O)ccc2Oc2ccc(CC3CCN(c4cnc(C(=O)N[C@H]5C(C)(C)[C@H](Oc6ccc(C#N)c(Cl)c6)C5(C)C)cn4)CC3)cc2)c2cc[nH]c2c1=O` [Compound I-370], the concentration for 50% growth inhibition (GI50) in assay [1] (Homo sapiens) was under 500 nM. In assay [1], `Cn1cc(-c2ccccc2Oc2ccc(N3CC(CC4CCN(c5ccc(C(=O)N[C@H]6C(C)(C)[C@H](Oc7ccc(C#N)c(Cl)c7)C6(C)C)nc5)CC4)C3)cc2)c2cc[nH]c2c1=O` [Compound I-364] returned a GI50 of over 3000 nM. For `CCS(=O)(=O)Nc1ccc(Oc2cccc(N(CCN(C)C3CCN(c4ncc(C(=O)N[C@H]5C(C)(C)[C@H](Oc6ccc(C#N)c(Cl)c6)C5(C)C)cn4)CC3)C(C)C)c2F)c(-c2cn(C)c(=O)c3[nH]ccc23)c1` [Compound I-183], the GI50 in assay [2], in assay [3] and in assay [4] was under 500 nM throughout. `CCS(=O)(=O)Cc1ccc(Oc2cccc(CCOC3CCN(c4ncc(C(=O)N[C@H]5C(C)(C)[C@H](Oc6ccc(C#N)c(Cl)c6)C5(C)C)cn4)CC3)c2F)c(-c2cn(C)c(=O)c3[nH]ccc23)c1` [Compound I-160]: the GI50 in assay [2], in assay [3] and in assay [4] was under 500 nM in each case. As to `CCC(=O)N(C)c1ccc(Oc2cccc(OCCOC3CCN(c4ncc(C(=O)N[C@H]5C(C)(C)[C@H](Oc6ccc(C#N)c(Cl)c6)C5(C)C)cn4)CC3)c2)c(-c2cn(C)c(=O)c3[nH]ccc23)c1` [Compound I-60], the GI50 in assay [2] is under 500 nM; in assay [3] (Homo sapiens), under 500 nM; in assay [4] it was over 3000 nM. As to `CCS(=O)(=O)Nc1ccc(Oc2ccc(CCCOC3CCN(c4ncc(C(=O)N[C@H]5C(C)(C)[C@H](Oc6ccc(C#N)c(Cl)c6)C5(C)C)cn4)CC3)cc2)c(-c2cn(C)c(=O)c3[nH]ccc23)c1` [Compound I-152], the GI50 in assay [2], in assay [3] and in assay [4] was under 500 nM in each case. For the compound `CCS(=O)(=O)Nc1ccc(Oc2cccc(OCCC3CCN(c4ncc(C(=O)N[C@H]5C(C)(C)[C@H](Oc6ccc(C#N)c(Cl)c6)C5(C)C)cn4)CC3)c2)c(-c2cn(C)c(=O)c3[nH]ccc23)c1` [Compound I-26], the GI50 in assay [2], in assay [3] (Homo sapiens) and in assay [4] was under 500 nM each time. Turning to `CCS(=O)(=O)c1ccc(Oc2cccc(CCCOC3CCN(c4ncc(C(=O)N[C@H]5C(C)(C)[C@H](Oc6ccc(C#N)c(Cl)c6)C5(C)C)cn4)CC3)c2F)c(-c2cn(C)c(=O)c3[nH]ccc23)c1` [Compound I-176], the GI50 in assay [2], in assay [3] (Homo sapiens) and in assay [4] was under 500 nM throughout.
